# Assay results reported in ChEMBL document CHEMBL1123177, “1H NMR configurational correlation for retro-inverso dipeptides: application to the determination of the absolute configuration of "enkephalinase" inhibitors. Relationships between stereochemistry and enzyme recognition” (J Med Chem, 1986).
# Target: Neprilysin (Oryctolagus cuniculus) (UniProt P08049)
# Test: Concentration for 50% inhibition of activity of rabbit kidney enkephalinase
# Sequence of Neprilysin (Oryctolagus cuniculus) (P08049 whole entry, looked up): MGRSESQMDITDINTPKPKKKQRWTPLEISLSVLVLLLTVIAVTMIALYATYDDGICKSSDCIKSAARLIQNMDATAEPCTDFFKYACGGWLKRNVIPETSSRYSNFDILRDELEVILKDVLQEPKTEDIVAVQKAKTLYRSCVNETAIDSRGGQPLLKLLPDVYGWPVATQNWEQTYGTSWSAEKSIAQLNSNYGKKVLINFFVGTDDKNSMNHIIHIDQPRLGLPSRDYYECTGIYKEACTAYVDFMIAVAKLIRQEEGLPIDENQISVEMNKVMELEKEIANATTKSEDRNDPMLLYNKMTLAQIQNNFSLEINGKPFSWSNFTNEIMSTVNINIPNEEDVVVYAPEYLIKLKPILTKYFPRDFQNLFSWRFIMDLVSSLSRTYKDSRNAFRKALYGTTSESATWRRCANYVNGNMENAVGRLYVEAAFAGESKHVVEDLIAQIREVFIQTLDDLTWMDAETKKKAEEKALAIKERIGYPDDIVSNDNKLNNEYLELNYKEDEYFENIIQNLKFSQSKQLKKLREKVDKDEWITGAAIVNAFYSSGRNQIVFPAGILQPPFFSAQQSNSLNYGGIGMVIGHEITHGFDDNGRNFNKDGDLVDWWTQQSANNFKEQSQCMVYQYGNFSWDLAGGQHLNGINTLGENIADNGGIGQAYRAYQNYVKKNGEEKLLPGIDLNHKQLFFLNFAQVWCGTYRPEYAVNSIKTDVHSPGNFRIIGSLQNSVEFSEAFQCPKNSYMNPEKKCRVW
row,IC50 [nM],Compound
1,0.75,CC(C)C[C@H](C(=O)O)C(=O)N[C@H](CS)Cc1ccccc1
2,0.65,C[C@H](C(=O)O)C(=O)N[C@H](CS)Cc1ccccc1
3,1.5,CC(C)C[C@@H](C(=O)O)C(=O)N[C@H](CS)Cc1ccccc1 (racemic)
4,0.54,C[C@@H](C(=O)O)C(=O)N[C@H](CS)Cc1ccccc1 (racemic)
5,2.3,"O=C(O)CC(=O)NC(CS)Cc1ccccc1 (single isomer, unassigned; 7a)"
6,210,"O=C(O)CC(=O)NC(CS)Cc1ccccc1 (single isomer, unassigned; 7b)"
